This passage reports EC50 results from BindingDB's records for doi:10.7270/Q21N7ZQ4 (Johns Hopkins Ion Channel Center, 2012).

Structures are written as SMILES.

The target in the assay is T1, High affinity choline transporter 1 (Homo sapiens, UniProt Q9GZV3).
T1 sequence (Q9GZV3 whole entry): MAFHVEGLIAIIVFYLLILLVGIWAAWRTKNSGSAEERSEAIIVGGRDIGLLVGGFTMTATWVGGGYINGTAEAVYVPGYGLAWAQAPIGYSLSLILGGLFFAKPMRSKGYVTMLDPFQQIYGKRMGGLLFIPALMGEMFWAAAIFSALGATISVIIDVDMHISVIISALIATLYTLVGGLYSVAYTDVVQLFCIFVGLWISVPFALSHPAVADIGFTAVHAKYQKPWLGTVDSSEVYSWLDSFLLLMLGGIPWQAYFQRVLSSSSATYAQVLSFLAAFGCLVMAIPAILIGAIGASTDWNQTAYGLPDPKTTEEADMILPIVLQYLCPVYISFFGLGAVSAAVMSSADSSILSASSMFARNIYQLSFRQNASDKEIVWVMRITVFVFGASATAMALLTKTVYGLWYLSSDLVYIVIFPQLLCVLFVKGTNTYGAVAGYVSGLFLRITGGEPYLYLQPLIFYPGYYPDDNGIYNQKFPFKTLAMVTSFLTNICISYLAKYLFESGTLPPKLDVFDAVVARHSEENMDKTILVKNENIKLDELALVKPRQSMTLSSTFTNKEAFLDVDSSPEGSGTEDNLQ
In words: CHT activators, dose response, cell-based, 10-point CRC, membrane potential dye (AID 602376).

As usually defined, the EC50 is the midpoint of the concentration-response curve. The compound `CCOC(=O)c1ccc(-[n+]2c(-c3ccccc3)cc(-c3ccccc3)cc2-c2ccccc2)cc1` [MLS001242871] displayed an EC50 of 14.1 µM.

Consider `COc1cc(C2c3ccc(N)cc3OC(=N)C2C#N)cc(OC)c1OC` (configuration not stated) [2,7-bis(azanyl)-4-(3,4,5-trimethoxyphenyl)-4H-chromene-3-carbonitrile], for which the response was half-maximal at 13.5 µM (EC50).
